Source: US20100227313A1, “Methods and Compositions for Determining Altered Susceptibility of HIV-1 to Protease Inhibitor Treatment” (priority 2007, published 2010)

System: HIV-1
Assay: Resistance test vector (PHENOSENSE) phenotypic susceptibility assay, fold change in IC50, correlated with genotype (Fisher's Exact test, odds ratio)
Format: cell-based, human immunodeficiency virus type 1
Details: for Odds Ratio: reduced susceptibility (FC>2)
Source text: See Petropoulos et al., 2000, Antimicrob. Agents Chemother. 44:920-928; U.S. Pat. Nos. 5,837,464 and 6,242,187. PHENOSENSE™ is a phenotypic assay that achieves the benefits of phenotypic testing and overcomes the drawbacks of previous assays.
PHENOSENSE™ can obtain results with only one round of viral replication, thereby avoiding selection of subpopulations of virus that can occur during preparation of viral stocks required for assays that rely on fully infectious virus.
A resistance test vector (“RTV”) can then be constructed by incorporating the amplified viral gene sequences into a replication defective viral vector by using any method known in the art of incorporating gene sequences into a vector. In one embodiment, restrictions enzymes and conventional cloning methods are used. See Sambrook et al., 2001, Molecular Cloning: A Laboratory Manual, Cold Spring Harbor Laboratory, 3rd ed., NY; and Ausubel et al., 1989, Current Protocols in Molecular Biology, Greene Publishing Associates and Wiley Interscience, NY. In a preferred embodiment, ApaI and PinAI restriction enzymes are used. Preferably, the replication defective viral vector is the indicator gene viral vector (“IGVV”). In a preferred embodiment, the viral vector contains a means for detecting replication of the RTV. Preferably, the viral vector contains a luciferase expression cassette.
The assay can be performed by first co-transfecting host cells with RTV DNA and a plasmid that expresses the envelope proteins of another retrovirus, for example, amphotropic murine leukemia virus (MLV). Following transfection, viral particles can be harvested from the cell culture and used to infect fresh target cells in the presence of varying amounts of anti-viral drug(s). The completion of a single round of viral replication in the fresh target cells can be detected by the means for detecting replication contained in the vector. In a preferred embodiment, the completion of a single round of viral replication results in the production of luciferase. By monitoring the amount of, e.g., luciferase activity in the presence of the varying amounts of antiviral drug(s), a resistance curve can be constructed by plotting luciferase activity versus drug concentration. The susceptibility of an HIV, or population of HIV, can be determined by measuring the concentration of antiviral drug at which the luciferase activity detected is half-maximal. This number, the IC50, provides a standard and convenient measure of drug resistance.
Patient derived segment(s) corresponding to the HIV protease and reverse transcriptase coding regions were amplified by the reverse transcription polymerase chain reaction method (RT PCR) using viral RNA isolated from viral particles present in the plasma or serum of HIV infected individuals as follows. Viral RNA was isolated from the plasma or serum using oligo-dT magnetic beads (Dynal Biotech, Oslo, Norway), followed by washing and elution of viral RNA. The RT PCR protocol was divided into two steps. A retroviral reverse transcriptase (e.g. Moloney MuLV reverse transcriptase (Roche Molecular Systems, Inc., Branchburg, N.J.; Invitrogen, Carlsbad, Calif.), or avian myeloblastosis virus (AMV) reverse transcriptase, (Boehringer Mannheim, Indianapolis, Ind.) was used to copy viral RNA into cDNA. The cDNA was then amplified using a thermostable DNA polymerase (e.g. Taq (Roche Molecular Systems, Inc., Branchburg, N.J.), Tth (Roche Molecular Systems, Inc., Branchburg, N.J.), PRIMEZYME™ (isolated from Thermus brockianus, Biometra, Gottingen, Germany)) or a combination of thermostable polymerases as described for the performance of “long PCR” (Barnes, W.M., 1994, Proc. Natl. Acad. Sci, USA 91, 2216 20) (e.g. Expand High Fidelity PCR System (Taq+Pwo), (Boehringer Mannheim. Indianapolis, Ind.); GENEAMP XL™ PCR kit (Tth+Vent), (Roche Molecular Systems, Inc., Branchburg, N.J.); or […] II®, Clontech, Palo Alto, Calif.)

CC(C)CN(C[C@@H](O)[C@H](Cc1ccccc1)NC(=O)O[C@H]1CCOC1)S(=O)(=O)c1ccc(N)cc1 [APV, amprenavir]
correlation of FC in susceptibility with the FC in susceptibility for DRV (2862 clinical samples, FC relative to wild-type (NL4-3), FIG. 1): tightly correlated
Odds Ratio (mutation A22V in PR): 4.43
Odds Ratio (mutation A71I in PR): 1.93
Odds Ratio (mutation A71V in PR): 1.62
Odds Ratio (mutation A431I in gag): 21.52
Odds Ratio (mutation A431V in gag): 3.21
Odds Ratio (mutation C67F in PR): 9.28
Odds Ratio (mutation C95F in PR): 4.96
Odds Ratio (mutation D60E in PR): 1.51
Odds Ratio (mutation E34Q in PR): 4.54
Odds Ratio (mutation E35D in PR): 1.27
Odds Ratio (mutation E35N in PR): 10.13
Odds Ratio (mutation E428D in gag): 1.94
Odds Ratio (mutation E467K in gag): 2.39
Odds Ratio (mutation E468K in gag): 2.98
Odds Ratio (mutation F53L in PR): 4.91
Odds Ratio (mutation F53Y in PR): 10.44
Odds Ratio (mutation F463S in gag): 7.28
Odds Ratio (mutation F463V in gag): 2.29
Odds Ratio (mutation F465L in gag): 1.65
Odds Ratio (mutation F465S in gag): 2.17
Odds Ratio (mutation G16A in PR): 4.49
Odds Ratio (mutation G73A in PR): 5.85
Odds Ratio (mutation G73C in PR): 2.98
Odds Ratio (mutation G73S in PR): 2.69
Odds Ratio (mutation G73T in PR): 21.84
Odds Ratio (mutation H69R in PR): 3.98
Odds Ratio (mutation H441Q in gag): 3.05
Odds Ratio (mutation I13V in PR): 1.41
Odds Ratio (mutation I47V in PR): 98.74
Odds Ratio (mutation I54A in PR): 7.70
Odds Ratio (mutation I54L in PR): 8.74
Odds Ratio (mutation I54M in PR): 32.44
Odds Ratio (mutation I54V in PR): 2.67
Odds Ratio (mutation I62V in PR): 1.28
Odds Ratio (mutation I66F in PR): 4.19
Odds Ratio (mutation I66V in PR): 4.16
Odds Ratio (mutation I72L in PR): 3.51
Odds Ratio (mutation I72V in PR): 1.51
Odds Ratio (mutation I84V in PR): 58.10
Odds Ratio (mutation I85V in PR): 3.21
Odds Ratio (mutation I437V in gag): 3.51
Odds Ratio (mutation I479T in gag): 1.28
Odds Ratio (mutation K20R in PR): 2.41
Odds Ratio (mutation K20T in PR): 1.55
Odds Ratio (mutation K20V in PR): 4.43
Odds Ratio (mutation K43T in PR): 7.24
Odds Ratio (mutation K55R in PR): 4.17
Odds Ratio (mutation L10F in PR): 3.36
Odds Ratio (mutation L10I in PR): 1.95
Odds Ratio (mutation L10V in PR): 1.62
Odds Ratio (mutation L19P in PR): 6.49
Odds Ratio (mutation L23I in PR): 4.81
Odds Ratio (mutation L24F in PR): 11.71
Odds Ratio (mutation L33F in PR): 12.07
Odds Ratio (mutation L63P in PR): 1.10
Odds Ratio (mutation L89I in PR): 2.71
Odds Ratio (mutation L89M in PR): 1.95
Odds Ratio (mutation L90M in PR): 1.24
Odds Ratio (mutation L449F in gag): 1.46
Odds Ratio (mutation L449V in gag): 9.49
Odds Ratio (mutation M36I in PR): 1.48
Odds Ratio (mutation M36L in PR): 1.98
Odds Ratio (mutation M46I in PR): 2.32
Odds Ratio (mutation M46L in PR): 2.48
Odds Ratio (mutation M423I in gag): 2.07
Odds Ratio (mutation N37D in PR): 1.55
Odds Ratio (mutation P79A in PR): 18.04
Odds Ratio (mutation P79S in PR): 9.49
Odds Ratio (mutation P453I in gag): 4.11
Odds Ratio (mutation P453V in gag): 9.49
Odds Ratio (mutation P459T in gag): 2.53
Odds Ratio (mutation Q58E in PR): 4.49
Odds Ratio (mutation Q61N in PR): 5.22
Odds Ratio (mutation Q92K in PR): 7.78
Odds Ratio (mutation R452K in gag): 2.49
Odds Ratio (mutation R452S in gag): 2.87
Odds Ratio (mutation S451T in gag): 1.85
Odds Ratio (mutation S462N in gag): 2.19
Odds Ratio (mutation S488A in gag): 1.79
Odds Ratio (mutation T4A in PR): 9.49
Odds Ratio (mutation T4P in PR): 4.01
Odds Ratio (mutation T4S in PR): 8.07
Odds Ratio (mutation T12P in PR): 2.37
Odds Ratio (mutation T74P in PR): 27.85
Odds Ratio (mutation T91S in PR): 11.16
Odds Ratio (mutation V11I in PR): 23.10
Odds Ratio (mutation V32I in PR): 62.34
Odds Ratio (mutation V82A in PR): 1.98
Odds Ratio (mutation V82C in PR): 9.18
Odds Ratio (mutation V82F in PR): 11.71
Odds Ratio (mutation V82I in PR): 2.31
Odds Ratio (mutation V82L in PR): 6.33
Odds Ratio (mutation V82T in PR): 3.06
